Results taken from article PMC12731536, “Sc(III) Complexes of Pyclen Derivative Ligands as Probes for Hypoxia: Synthesis, Chemical Characterization, ^44Sc‐Radiolabeling, and Preclinical Assessment” (Chemistry (Weinheim an Der Bergstrasse, Germany), 2025).
Read-outs that look alike come from different tables or passages of the source.

Legend:
[1] = Fluoride binding of [Sc(PC2AM^nBu)]^+ (ternary complex stability), 19F NMR titration; format: physicochemical; settings: stability constant of the ternary fluoride complex, 19F NMR, pH = 5.2, I = 0.15 M NaCl, 25 °C
From the text: Sc(III) is a typical “hard” cation, forming very stable complexes with fluoride anion.^[ [51], [52] ^] […] The formation of the ternary [Sc(PC2AM^nBu)(F)] complex can be followed by […], as two sets of signals (Δδ ∼ 20 Hz) indicate a slow exchange regime on the […] time scale (Figure S16). Measuring the intensities of the free and bound fluoride signals, the stability constant (Eqn. 6) of the [Sc(PC2AM^nBu)(F)] complex (Eqn. 5) can be calculated (Table S1).
(5) [Sc(PC2AM^nBu)]^++F^−⇌[Sc(PC2AM^nBu)(F)] (6) KScLF=ScPC2AM^nBuF/[ScPC2AM^nBu^+]F^−
Table S1. Summary of data used for the calculation of the stability constant, log K[Sc(PC2AM^nBu)(F)] by titration of 0.005M [Sc(PC2AM^nBu)]^+ parent complex with different amounts of F^- (0.005 - 0.01 M concentration range) followed by 376.4 MHz ^19F NMR (I = 0.15 M NaCl, c Sc(PC2AM^nBu) = 5 mM, pH=5.20, T= 298 K).

[2] = Time course of Sc(III) complex formation, 45Sc NMR; format: physicochemical; settings: ‐log[H^+] = 1.28, 25 °C
Experimental: The time course of complex formation of PC2AM^nBu and PCTA ligands with Sc(III) ion was investigated by ^45Sc‐NMR under acidic conditions (cSc = cligand = 10 mM and 9.5 mM, respectively, ‐log[H^+] = 1.28). The decrease of the narrow signal of the free Sc(III) ion was monitored as a function of time. […] The kinetic measurements of formation could be seen in Figures S18 and S19. The complexation for the [Sc(PCTA)] chelate at pH = 1.28 and 25 °C took about 300 minutes to reach the equilibrium, whereas for the [Sc(PC2AM^nBu)]^+ complex it took a bit longer time under these conditions. (In order to confirm that the samples reached the equilibrium, we have repeated the ^45Sc NMR study for both samples after a few days when the signal of the free Sc(III) was absent, and only the signals of the complexes were detected.) The detailed study of formation kinetics was not our aim in this project. One can expect that the reaction follows the well‐known mechanisms of M(III) ‐ macrocyclic APC systems ^[ [54] ^]: formation of a protonated intermediate in fast pre‐equilibrium followed by a slow, base‐catalyzed deprotonation/structural rearrangement as a rate‐determining step. The intermediate is named also as “out‐of‐cage complex.”^[ [55] ^] Our experimental curves are likely in accordance with this mechanism. Fitting the measured data for the free Sc(III) signals by a monoexponential function gives the rate constant k obs = (1.04 ± 0 .05) x 10^−4 s^−1 for the [Sc(PC2AM^nBu)]^+ and k obs = (2.51 ± 0.12) x 10^−4 s^−1 for the [Sc(PCTA)] complex. […] The relatively fast complex formation at the given acidic condition is very encouraging for the Sc(III) labeling experiments.
^45Sc NMR measurements (97 MHz) were performed on a Bruker DRX 400 (9.4 T) spectrometer equipped with a Bruker VT‐1000 thermocontroller and a BB inverse z‐gradient probe (5 mm). The kinetic experiments were performed at 25 °C in aqueous solution, using D2O (10% v/v) as a lock solvent. Typical parameters for 45Sc NMR measurements were used: TD = 32k, p1 = 15.6 µs (90°), d 1 = 0.1 s. The formation reactions of the [Sc(PC2AM^nBu)]^+ and [Sc(PCTA)] complexes were monitored by ^45Sc NMR spectroscopy in two sample types: one containing 10.0 mM PC2AM^nBu and ScCl3 / 9.5 mM […] and ScCl3. In both cases, the total acid concentration corresponded to a pH of 1.28. Obtained monoexponential curves (signal area of free Sc(III) vs. time) were fitted using Scientist software ^[ [62] ^] to determine the formation rate.

[3] = pH‐potentiometric determination of ligand protonation constants; format: physicochemical; settings: I = 1.00 M NaCl, T = 25 °C
Experimental: The equilibrium study of the PC2AM^nBu ligand has been started by determining the protonation constants in 0.15 M and 1.00 M NaCl ionic strength. (As the stability of the Sc(III) complex was determined in 1.00 M ionic strength, we had to perform the pH‐potentiometric titration of ligands using 1.00 M ionic strengths also.) The results of pH‐potentiometric measurement are shown in Table 1, where the corresponding data for 3,9‐PC2A,^[ [42] ^] PCTA ^[ [46] ^] and PC2AM‐NI ligands determined under identical conditions are also presented. Knowledge of the protonation constants defined by Eqn. 1 and 2 are essential for the calculation of the stability constants of the Sc(III) complexes:
(1) PC2AM^nBu^2−+nH^+⇌Hn(PC2AM^nBu)^−2+n (2) βn=HnPC2AM^nBu^−2+n/PC2AM^nBu^2−H^+^n
The protonation constants of the ligands, as well as the concentrations of the ligand stock solutions, were determined by pH‐potentiometric method using a Metrohm 785 DMP Titrino automatic titrator using a Metrohm 6.00234.100 combined glass electrode. The titrations were carried out in the pH range 1.75–11.80 and the pH electrode was calibrated by a two‐point calibration routine with the use of 0.05 M KH‐phthalate (pH = 4.005) and 0.01 M borax (pH = 9.177 buffers. The samples were stirred at 25 °C (±0.1 °C) and N2 gas bubbled into the system to ensure inert conditions and to eliminate the effect of the presence of CO2. For the calculation of [H^+] from the measured pH values, the method proposed by Irving et al. was applied.^[ [61] ^] For this, a 0.01 M HCl solution was titrated with the standardized NaOH solution in the presence of 0.15 M NaCl ionic strength at 25 °C. The differences between the measured (pHread) and calculated pH (‐log[H^+]) values were used to obtain the equilibrium H^+ concentration from the pHmeas values during the titrations. By fitting the resulting titration curves (pH – V (NaOH) data pairs) with the PSEQUAD program, the protonation constants of the ligands were determined.^[ [47] ^] The titration of the [Sc(PC2AM^nBu)]^+ with NaOH was performed with the same method by applying very similar conditions.

[4] = I = 0.15 M NaCl, T = 25 °C; cited from earlier work

Row | SMILES | log K ScLF [1] | half‐life of the complex formation reaction (t 1/2 = ln2 / k obs) [2] [h] | log K 1 ^H [3] | log K 2 ^H [3] | log K 3 ^H [3] | log K 4 ^H [3] | log β 2 ^H [3] | log K 1 ^H [4] | log K 2 ^H [4] | log K 3 ^H [4] | log K 4 ^H [4] | log β 2 ^H [4]
1 | CCCCNC(=O)CN1CCN(CC(=O)[O-])Cc2cccc(n2)CN(CC(=O)[O-])CC1.[Sc+3] [[Sc(PC2AM^nBu)]^+] | 2.5(2) | 1.83 | – | – | – | – | – | – | – | – | – | –
2 | O=C(O)CN1CCN(CC(=O)O)Cc2cccc(n2)CN(CC(=O)O)CC1 [PCTA, reference compound] | – | – | 9.22(6) | 7.30(8) | 4.09 (9) | 1.42(8) | 16.52 | 9.97 | 6.73 | 3.22 | 1.40 | 16.70
